Assay results as given in PMC10257182, “Discovery of senolytics using machine learning” (Nature Communications, 2023).
“And” between values parts separate entries of the source, which are not always exact repeats. Equal values may be shown once. Read-outs that look alike come from different tables or passages of the source.

Experiments:
Format in all cases: cell-based, human
[1] = tested on: Na+/K+ ATPase pump (intracellular K+) in IMR90 cells at passage 27; assay: Intracellular K+ determination with Asante staining, replicative senescence; details: for Asante Mean intensity / Asante Mean intensity, group mean (Test details, Mean 2): Replicative Senescence cells; for Asante Mean intensity: individual replicate values; for Asante Mean intensity, group mean (Test details, Mean 2): mean of n=6
Experimental: (§1) Cells were cultured for control and senescent phenotype and then treated with the senolytics oleandrin, ouabain and periplocin at 10 nM for 72 h. Asante (Asante Potassium Green-2 AM, abcam ab142806) was added to the culture 30 min before fixation, following manufacturer instructions. DAPI staining was done before image acquisition on Nikon TI2 microscope (20x). Image analysis was performed using ImageJ 1.53k for setting intensity threshold and measuring mean intensity.

[2] = tested on: control A549 cells; assay: Cell survival assay using crystal violet staining, TIS, control cells; details: for % Cell Survival: Control (no etoposide) cells, Control DMSO = 100, single replicates (SUP FIG 9E)
Experimental: (§2) Equal numbers of control and senescent cells were plated at high density on multiwell plates just before senolytic treatment addition. After treatment, cells were fixed on 0.5% glutaraldehyde (Sigma) and then dried at RT overnight. Then, wells were stained with crystal violet solution for 3 h, washed and dried. Once they were completely dry, the plates were scanned for records. Quantification was performed extracting the staining with 1% acetic acid and measuring the final solution by absorbance at 595 nm. […]
(§3) cells per condition is indicated. (d) Cell survival assay measuring the senolytic effect in lung cancer senescent cells. The panels show a representative crystal violet staining of tissue culture dishes of confluent A549 cells treated with 100 μM etoposide and control A549 cells, all treated with 10 nM oleandrin, ouabain and periplocin, and DMSO as vehicle control for 72 hours as indicated. (e) Graph representing the cell survival by quantification of the crystal violet staining of the experiment described in (d), as described in Methods. Data represented as individual datapoints, and bars and error bars representing the mean ± SEM of 14 independent experiments. Statistical analysis was performed using a one-way ANOVA (Tukey’s test) for multiple comparisons. […]
(§4) Scale bars represent 100 μm. ns = not significant, * = p < 0.05, ** = p < 0.01, *** = p < 0.001, **** = p < 0.0001. Source data are provided as a Source Data file.

[3] = tested on: A549 cells treated with 100 μM etoposide; assay: Cell survival assay using crystal violet staining, TIS, senescent cells; details: for % Cell Survival: Etoposide-treated (senescent) cells, Control DMSO = 100, single replicates (SUP FIG 9E)
Experimental: as §2, §3, §4

[4] = tested on: senescent IMR90 ER:RAS cells; assay: Cell survival assay using crystal violet staining, OIS, senescent cells; design: % Cell Survival: concentration or dose not given beside the values; details: for % Cell Survival / Mean (cell survival, Tukey test details): FIG 4B, ER:RAS cells; for % Cell Survival: individual replicate values, ER:STOP DMSO = 100; for Mean (cell survival, Tukey test details): mean of n=12 as fraction of STOP DMSO = 1
Experimental: (§5) Equal numbers of control and senescent cells were plated at high density on multiwell plates just before senolytic treatment addition. After treatment, cells were fixed on 0.5% glutaraldehyde (Sigma) and then dried at RT overnight. Then, wells were stained with crystal violet solution for 3 h, washed and dried. Once they were completely dry, the plates were scanned for records. Quantification was performed extracting the staining with 1% acetic acid and measuring the final solution by absorbance at 595 nm.

[5] = tested on: A549 cells treated with 100 μM etoposide; assay: Cell survival assay using crystal violet staining, TIS, senescent cells; details: fraction of Control DMSO = 1, n 15
[6] = tested on: proliferating IMR90 cells; assay: BrdU incorporation proliferation assay; details: for % BrdU positive cells, mean (Test details, Mean 2) / % BrdU positive cells: IMR90 cells; for % BrdU positive cells, mean (Test details, Mean 2): n 4; for % BrdU positive cells: single replicates (SUP FIG 9G); for proliferation by BrdU incorporation, in words: proliferating IMR90 cells, 10 nM
Experimental: 5-bromo-2′-deoxyuridine (BrdU) incorporation was used to measure the number of cells actively replicating DNA. Cells were incubated with 10 μM BrdU (85811, Sigma) for 18 h. After that, cells were fixed with 4% Paraformaldehyde, permeabilised, blocked and then stained for immunofluorescence using BrdU primary antibody (555627 BD Pharmigen), Alexa fluor secondary for detection, and DAPI staining for cell counting. Acquisition was done with a Nikon TI2 microscope and analysis was performed with ImageJ for cell counting.

[7] = tested on: caspase 3/7 activity in senescent IMR90 ER:RAS cells; assay: Caspase 3/7 activity assay; design: Caspase 3/7 activity time course (SUP FIG 9F) / Caspase 3/7 activity time course (SUP FIG 9F exp not shown): unit not given here; details: for Caspase 3/7 activity time course (SUP FIG 9F) / Caspase 3/7 activity time course (SUP FIG 9F exp not shown): ER:RAS cells; for Caspase 3/7 activity time course (SUP FIG 9F exp not shown): second experiment, data not shown; for Casp3/7 activity (percentage of green fluorescent cells): ER:RAS, 100 nM 4OHT, 10 nM compound, 35 h
Experimental: IMR90 ER:STOP and IMR90 ER:RAS cells were cultured with 100 nM 4-OHT for 5 days. Cell were then plated in a multiwell plate at high density. Once cells were attached, Caspase 3/7 probe (C10423 Invitrogen) and senolytic drugs, oleandrin, ouabain and periplocin at 10 nM, were added to the media and cultured for 36 h. Time lapse imaging was recorded every hour on a Leica AF6500 microscope (10x). ImageJ 1.53k was used for positive cell counting.

[8] = tested on: IMR90 cells at passage 27 (replicative senescence); assay: Cell survival assay using crystal violet staining, replicative senescence; details: for % Cell Survival: Replicative Senescence (RS) cells, individual replicate values, Control DMSO = 100
Source text: (§6) IMR90 (CCL-186) human foetal lung fibroblasts and A549 (CCL-185) human lung adenocarcinoma cells were obtained from the American Type Culture Collection (ATCC, Manassas, VA). The cell lines were confirmed to be mycoplasma negative (Lonza MycoAlert, cat #LT07-118). IMR90 ER:RAS is a derivative of IMR90 cells expressing a switchable version of oncogenic H-Ras[84]. IMR90 ER:RAS and A549 cells were maintained in Dulbecco’s Modified Eagle Medium (DMEM, ThermoFisher) supplemented with foetal bovine serum (10%), L-glutamine (2 mM, ThermoFisher), and antibiotic-antimycotic solution (1%, ThermoFisher) and incubated under standard tissue culture conditions (37 °C and 5% CO2). For induction of the senescent phenotype, IMR90-ER:RAS cells were cultured in hydroxytamoxifen (4-OHT) (Sigma) added media at 100 nM final concentration. IMR90 were kept in culture for over 27 passages for replicative senescence. Cells were tested for mycoplasma on a regular basis.
as §5

[9] = tested on: Na+/K+ ATPase pump (intracellular K+) in senescent IMR90 ER:RAS cells; assay: Intracellular K+ determination with Asante staining, OIS; details: for Asante Mean intensity / Mean (Asante Mean intensity, Tukey test details): FIG 4E, ER:RAS cells; for Asante Mean intensity: individual replicate values; for Mean (Asante Mean intensity, Tukey test details): mean of n=7
Experimental: as §1

[10] = tested on: IMR90 cells at passage 13 (control)
Source text: as §6, §5

[11] = replicative senescence IMR90, 10 nM, 72 h

Compound	Asante Mean intensity [1]	Asante Mean intensity, group mean (Test details, Mean 2) [1]	% Cell Survival [2]	% Cell Survival [3]	% Cell Survival [4]	Mean (cell survival, Tukey test details) [4]	Cell survival, mean (Test details, Mean 2) [5]	% BrdU positive cells, mean (Test details, Mean 2) [6] [%]	% BrdU positive cells [6]	proliferation by BrdU incorporation, in words [6]	Caspase 3/7 activity time course (SUP FIG 9F) ([7]; 01:00:00 hours)	Caspase 3/7 activity time course (SUP FIG 9F exp not shown) ([7]; 01:00:00 hours)	Caspase 3/7 activity time course (SUP FIG 9F) ([7]; 05:00:00 hours)	Caspase 3/7 activity time course (SUP FIG 9F exp not shown) ([7]; 05:00:00 hours)	Caspase 3/7 activity time course (SUP FIG 9F) ([7]; 10:00:00 hours)	Caspase 3/7 activity time course (SUP FIG 9F exp not shown) ([7]; 10:00:00 hours)	Caspase 3/7 activity time course (SUP FIG 9F) ([7]; 15:00:00 hours)	Caspase 3/7 activity time course (SUP FIG 9F exp not shown) ([7]; 15:00:00 hours)	Caspase 3/7 activity time course (SUP FIG 9F) ([7]; 20:00:00 hours)	Caspase 3/7 activity time course (SUP FIG 9F exp not shown) ([7]; 20:00:00 hours)	other results
C[C@@H]1O[C@@H](O[C@H]2C[C@@H](O)[C@]3(CO)[C@H]4[C@H](O)C[C@]5(C)[C@@H](C6=CC(=O)OC6)CC[C@]5(O)[C@@H]4CC[C@]3(O)C2)[C@H](O)[C@H](O)[C@H]1O [Ouabain, ouabain, reference compound]	151.8 and 154.5 and 152.7 and 153 and 150.8 and 153.1	152.7	87.7% and 109.8% and 97.7% and 103.7% and 127.7% and 98.4% and 119.9% and 122.1% and 126.3% and 124.6% and 125% and 96.4%	83.2% and 99.9% and 99.3% and 62.7% and 92.6% and 102.5% and 88.1% and 123.1% and 123.9% and 68.2% and 105.6% and 95.4% and 114.5% and 91.7%	99% and 102.3% and 88.5% and 93% and 111.6% and 79.7% and 87.5% and 77.4% and 104.8% and 84.4% and 78.3% and 72%	0.8988	0.9058	73.84	69.37% and 73.68% and 73.67% and 78.62%	none of the cardiac glycosides induced unwanted changes in proliferation	1.9	0.1	1.9	0.95	2.6	1.45	2.6	1.55	3	2.7	cytotoxic activity / cellular content (crystal violet), in words [4]: no cytotoxic activity; Caspase 3/7 activity time course (SUP FIG 9F) ([7]; 1 day, 1:00:00): 4; Caspase 3/7 activity time course (SUP FIG 9F exp not shown) ([7]; 1 day, 1:00:00): 4.6; Caspase 3/7 activity time course (SUP FIG 9F) ([7]; 1 day, 6:00:00): 3.9; Caspase 3/7 activity time course (SUP FIG 9F exp not shown) ([7]; 1 day, 6:00:00): 7.55; Caspase 3/7 activity time course (SUP FIG 9F) ([7]; 1 day, 11:00:00): 3.9; Caspase 3/7 activity time course (SUP FIG 9F exp not shown) ([7]; 1 day, 11:00:00): 8.25; Casp3/7 activity (percentage of green fluorescent cells) [7]: 6.4%; % Cell Survival ([8]; FIG 4C): 94.8% and 97.2% and 95.8% and 90.6% and 106.9% and 98.6% and 108.7% and 109.7% and 103.6% and 106.2% and 99.7%; Asante Mean intensity [9]: 73.6 and 91 and 73.5 and 72.9 and 82 and 66.9; Mean (Asante Mean intensity, Tukey test details) [9]: 76.21
CO[C@H]1C[C@H](O[C@H]2CC[C@@]3(C)[C@H](CC[C@@H]4[C@@H]3CC[C@]3(C)[C@@H](C5=CC(=O)OC5)[C@@H](OC(C)=O)C[C@]43O)C2)O[C@@H](C)[C@@H]1O [Oleandrin, oleandrin]	145.1 and 146.6 and 146 and 145.5 and 145.6	145.7	99.6% and 145% and 133.8% and 119.3% and 135.9% and 111.6% and 113.5% and 93% and 97.3% and 116% and 109.5% and 116.3% and 95.4% and 109%	39.4% and 53.4% and 51.6% and 7.8% and 48.5% and 38.4% and 46.7% and 32.6% and 33.1% and 7.9% and 36.2% and 37.5% and 30.5% and 41.5%	37.9% and 39.1% and 12.2% and 30.1% and 44.2% and 34.9% and 40.3% and 12.5% and 41% and 10.4% and 36% and 34.1%	0.3106	0.3827	69.23	69.38% and 67.43% and 69.89% and 70.23%	none of the cardiac glycosides induced unwanted changes in proliferation	0.9	0.75	1.1	1.25	2.3	3.9	3	7.9	4	13.8	K+ intracellular concentration, in words [1, 11]: significantly reduced; cellular density in non-senescent control cultures, in words ([2]; A549 control, 10 nM, 72 h): unchanged; cellular content in senescent cultures (crystal violet), in words ([3]; A549 TIS with etoposide, 10 nM, 72 h): significant reduction in cellular content; cytotoxic activity / cellular content (crystal violet), in words ([4]; IMR90-ER:RAS cells undergoing OIS, 10 nM, 72 h): significant drop in cellular content; Mean (cell survival, Tukey test details) ([10]; FIG 4C, Young (control) cells, mean of n=12 as fraction of Young DMSO = 1): 0.8637; cellular density in non-senescent control cultures, in words ([10]; IMR90 control, 10 nM, 72 h): unchanged; Caspase 3/7 activity time course (SUP FIG 9F) ([7]; 1 day, 1:00:00): 7.8; Caspase 3/7 activity time course (SUP FIG 9F exp not shown) ([7]; 1 day, 1:00:00): 16.55; Caspase 3/7 activity time course (SUP FIG 9F) ([7]; 1 day, 6:00:00): 11; Caspase 3/7 activity time course (SUP FIG 9F exp not shown) ([7]; 1 day, 6:00:00): 18.55; Caspase 3/7 activity time course (SUP FIG 9F) ([7]; 1 day, 11:00:00): 13.5; Caspase 3/7 activity time course (SUP FIG 9F exp not shown) ([7]; 1 day, 11:00:00): 19.65; Casp3/7 activity (percentage of green fluorescent cells) [7]: 92.2%; Mean (cell survival, Tukey test details) ([8]; FIG 4C, RS cells, mean of n=12 as fraction of Young DMSO = 1): 0.4453; % Cell Survival ([8]; FIG 4C): 54.5% and 40.7% and 48% and 38.1% and 50.7% and 43.4% and 31.1% and 55% and 50.3% and 37.4% and 44.9% and 40.3%; cellular content in senescent cultures (crystal violet), in words [8, 11]: significant reduction in cellular content; Asante Mean intensity [9]: 67.9 and 72 and 68.8 and 66.6 and 77 and 61.9; Mean (Asante Mean intensity, Tukey test details) [9]: 68.87; K+ intracellular concentration, in words ([9]; OIS IMR90, 10 nM, 72 h): significantly reduced
